Data from patent publication US20070157323A1, “In vivo odorant receptor systems and their uses” (priority 2003, published 2007).

How the values were obtained:
generalist predator = conditions: volatiles released individually, Nicotiana attenuata; Kessler et al.; cited from earlier work
[1] = test system: Oedaleus decorus asiaticus; conditions: both sexes; Chen et al.; cited from earlier work
Angaracris barabensis = conditions: both sexes; Chen et al.; cited from earlier work
V. pensylvanica = conditions: Davis et al.; MacDonald et al.; McGovern et al.; cited from earlier work
AgOr2 = target: T1, AgOr2 (Anopheles gambiae, UniProt Q8WTE6); assay: Single-unit electrophysiology of Drosophila ab3A neuron (Δhalo) expressing AgOr2; format: in vivo; conditions: liquid odors diluted 10^−4, solid odors 0.2 mg/ml in paraffin oil, 0.5 s pulse, FIG. 1b
T1 construct: expressed in transfected cells; host or cells: Transgenic Drosophila, ab3A olfactory receptor neuron lacking Or22a/Or22b (Δhalo), GAL4-UAS
T1 sequence (Q8WTE6 1-378): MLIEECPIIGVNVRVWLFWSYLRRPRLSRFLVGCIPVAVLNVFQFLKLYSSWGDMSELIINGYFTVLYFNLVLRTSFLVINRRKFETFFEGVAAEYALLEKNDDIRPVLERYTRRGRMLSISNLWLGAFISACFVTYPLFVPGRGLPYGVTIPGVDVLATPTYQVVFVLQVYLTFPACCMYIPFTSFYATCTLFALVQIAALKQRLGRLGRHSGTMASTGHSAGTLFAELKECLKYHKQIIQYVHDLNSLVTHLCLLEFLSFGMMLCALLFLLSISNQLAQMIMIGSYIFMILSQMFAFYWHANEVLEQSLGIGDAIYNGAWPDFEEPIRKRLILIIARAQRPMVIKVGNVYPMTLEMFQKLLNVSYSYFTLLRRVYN
T1 sequence (Q9VNB5 1-486 partner): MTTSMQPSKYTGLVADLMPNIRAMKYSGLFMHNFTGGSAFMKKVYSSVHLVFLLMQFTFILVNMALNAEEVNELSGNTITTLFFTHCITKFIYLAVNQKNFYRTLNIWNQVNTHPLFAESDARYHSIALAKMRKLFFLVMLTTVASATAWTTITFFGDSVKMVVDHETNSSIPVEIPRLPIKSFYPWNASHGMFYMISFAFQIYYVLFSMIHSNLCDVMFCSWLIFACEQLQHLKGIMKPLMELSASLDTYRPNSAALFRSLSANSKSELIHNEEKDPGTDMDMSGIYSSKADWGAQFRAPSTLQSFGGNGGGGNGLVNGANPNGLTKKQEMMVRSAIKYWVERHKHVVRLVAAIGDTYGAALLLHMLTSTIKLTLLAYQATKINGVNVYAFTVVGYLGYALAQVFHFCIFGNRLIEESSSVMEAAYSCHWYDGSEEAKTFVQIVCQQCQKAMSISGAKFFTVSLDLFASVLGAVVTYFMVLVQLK
Description: (§1) In summary, odorant receptors are introduced specifically into Δab3A using the GAL4/UAS system and Or22a-GAL4 is used to drive expression from a UAS-Or construct. The odorant response of the neuron (Δab3A:OrX) is assayed electrophysiologically.
(§2) To investigate the function of the A. gambiae odorant receptor genes AgOr1 and AgOr2 directly, these genes were expressed in the Drosophila olfactory receptor neuron that lacks odor response due to the deletion of its endogenous receptor genes, Or22a and Or22b using an Or22a promoter and the GAL4-UAS system.
(§3) AgOr1 and AgOr2 were expressed in the Δhalo background using the GAL4-UAS system. Specifically AgOr1 or AgOr2 was placed under the control of a UAS and expressed using the 22a-GAL4 driver so as to drive its expression in ab3A cells. […]
(§4) Action potentials of the ORNs in a sensillum were recorded by placing an electrode through the sensillum wall into contact with the lymph that bathes the dendrites. […] Recordings were analyzed offline in IGOR-Pro (WaveMetrics, Lake Oswego, Oreg.).
(§5) Odor stimuli were presented from Pasteur pipettes holding solutions of chemicals in paraffin oil on filter paper. […] Responses of the ab3A neurons were quantified by subtracting the number of impulses (i.e., spikes) in 500 ms of spontaneous activity from the number in the 500 ms after the onset of odor stimulation (FIG. 1).

[2] = test system: Rhagoletis pomonella flies; conditions: Nojima et al.; cited from earlier work
AgOr1 = target: T2, AgOr1 (Anopheles gambiae, UniProt Q8WTE7); assay: Single-unit electrophysiology of Drosophila ab3A neuron (Δhalo) expressing AgOr1; format: in vivo; conditions: liquid odors diluted 10^−4, solid odors 0.2 mg/ml in paraffin oil, 0.5 s pulse, FIG. 1a
T2 construct: expressed in transfected cells; host or cells: Transgenic Drosophila, ab3A olfactory receptor neuron lacking Or22a/Or22b (Δhalo), GAL4-UAS
T2 sequence (Q8WTE7 1-417): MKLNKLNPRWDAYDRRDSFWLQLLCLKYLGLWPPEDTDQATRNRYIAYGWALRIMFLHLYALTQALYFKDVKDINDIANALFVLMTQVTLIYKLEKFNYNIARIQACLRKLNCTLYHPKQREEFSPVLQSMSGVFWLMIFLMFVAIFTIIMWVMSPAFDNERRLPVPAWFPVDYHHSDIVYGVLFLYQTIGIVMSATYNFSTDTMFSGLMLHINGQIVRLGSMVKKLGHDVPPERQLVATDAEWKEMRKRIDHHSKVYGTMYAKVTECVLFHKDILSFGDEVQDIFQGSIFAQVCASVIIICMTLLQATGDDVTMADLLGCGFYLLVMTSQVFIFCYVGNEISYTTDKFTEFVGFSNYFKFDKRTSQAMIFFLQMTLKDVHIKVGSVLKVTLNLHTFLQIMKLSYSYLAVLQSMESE
T2 sequence (Q9VNB5 1-486 partner): T1 sequence (Q9VNB5 1-486 partner)
Description: as §1, §2, §3, §4, §5

[3] = test system: Glossina morsitans morsitans; conditions: Vale et al., 1988; cited from earlier work
Apol PBP1a = conditions: 3H-labeled ligand; cited from earlier work
Apol PBP3 = conditions: 3H-labeled ligand; cited from earlier work
Aper PBP1 = conditions: cited from earlier work
Aper PBP2 = target: T3, Aper PBP2 (Antheraea pernyi, UniProt Q17078); conditions: cited from earlier work
T3 construct: from tissue; host or cells: Sensory hair homogenates of A. pernyi (study quoted from the literature)
T3 sequence (Q17078 23-164): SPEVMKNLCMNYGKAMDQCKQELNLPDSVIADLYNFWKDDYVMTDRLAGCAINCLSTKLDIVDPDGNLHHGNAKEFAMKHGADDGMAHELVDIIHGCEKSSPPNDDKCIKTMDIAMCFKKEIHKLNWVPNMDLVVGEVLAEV

ab3A neuron = conditions: cited from earlier work; for strongest responses of the A neuron: sensilla expressing Or22a and Or22b
B neuron = conditions: sensilla expressing Or22a and Or22b; cited from earlier work
lepidopteran = conditions: Nicotiana attenuata; Kessler et al.; cited from earlier work

CC(C)=CCC[C@]1(C)[C@H]2CC=C(C)[C@@H]1C2 (relative stereo) [cis-alpha-bergamotene]
egg predation rates by a generalist predator (generalist predator): increased egg predation rates

CCCCCCCO [1-heptanol]
EAG responses [1]: Strong EAG responses
EAG responses (Angaracris barabensis): Strong EAG responses

CCCCCCO [1-hexanol]
EAG responses [1]: Strong EAG responses
EAG responses (Angaracris barabensis): Strong EAG responses

CC=CC=CCOC(=O)CCC [2,4-Hexadienyl butyrate]
attraction of V. pensylvanica (V. pensylvanica): attract

CC=CC=CCOC(=O)C(C)C [2,4-hexadienyl isobutyrate]
attraction of V. pensylvanica (V. pensylvanica): attract

CC=CC=CCOC(=O)CC [2,4-hexadienyl propionate]
attraction of V. pensylvanica (V. pensylvanica): attract

Cc1ccccc1O [2-methylphenol]
odor response conferred by AgOr2 (AgOr2): strong response

CC(C)CCO [3-methylbutan-1-ol]
EAD activity [2]: Consistent EAD activity

C=C/C=C(\C)CCC=C(C)C [4,8-dimethyl-1,3(E),7-nonatriene]
EAD activity [2]: Consistent EAD activity

Cc1ccc(O)cc1 [4-methylphenol]
odor response of mutant flies expressing AgOr1 (AgOr1): strong response
odor response conferred by AgOr2 (AgOr2): not
effectiveness of traps for the tsetse fly [3]: increase the effectiveness of traps

CCCC/C=C\CCC/C=C/CCCCCOC(C)=O [AC1, (E,Z)-6,11-hexadecadienyl acetate]
binding to Apol PBP1a (Apol PBP1a): bound
binding to Apol PBP3 (Apol PBP3): bound
binding affinity to Aper PBP1 (Aper PBP1): showed binding affinity

CCCC/C=C\CCC/C=C/CCCCC=O [ALD, (E,Z)-6,11-hexadecadienal]
binding to Apol PBP1a (Apol PBP1a): no binding
binding to Apol PBP3 (Apol PBP3): no binding
binding affinity to Aper PBP2 (Aper PBP2): showed binding affinity

CCC/C=C/C=O [E-2-hexen-1-al]
EAG responses [1]: Strong EAG responses
EAG responses (Angaracris barabensis): Strong EAG responses

CCC/C=C/CO [E-2-hexen-1-ol]
EAG responses [1]: Strong EAG responses
EAG responses (Angaracris barabensis): Strong EAG responses

CC/C=C/CCO [E-hexen-3-ol-1]
EAG responses [1]: Strong EAG responses
EAG responses (Angaracris barabensis): Strong EAG responses

CCC/C=C\CO [Z-hexen-2-ol-1]
EAG responses [1]: Strong EAG responses
EAG responses (Angaracris barabensis): Strong EAG responses

CC/C=C\CCOC(C)=O [Z-hexen-3-yl acetate]
EAG responses [1]: Strong EAG responses
EAG responses (Angaracris barabensis): Strong EAG responses

CCCCCC(=O)OCCCC [butyl hexanoate]
EAD activity [2]: Consistent EAD activity

CC/C=C\CCO [cis-3-hexen-1-ol]
egg predation rates by a generalist predator (generalist predator): increased egg predation rates

CC(=O)CCC1=C(C)CCCC1(C)C [dihydro-beta-ionone]
EAD activity [2]: Consistent EAD activity

CCOC(C)=O [ethyl acetate]
strongest responses of the A neuron (ab3A neuron): strongest responses
EAD activity [2]: Consistent EAD activity

CCCC(=O)OCC [ethyl butyrate]
sensitivity of ab3A (ab3A neuron; in vivo): highly sensitive
strongest responses of the A neuron (ab3A neuron): strongest responses

CCCCCC(C)=O [heptanone]
strongest responses of the B neuron (B neuron): strongest responses

CCCCCCCOC(=O)CCC [heptyl butyrate]
attraction of V. pensylvanica (V. pensylvanica): attract

CCCCCCO [hexanol]
strongest responses of the B neuron (B neuron): strongest responses

CC(=O)OCCC(C)C [isoamyl acetate]
EAD activity [2]: Consistent EAD activity

C=CC(C)(O)CCC=C(C)C (stereo not shown) [linalool]
egg predation rates by a generalist predator (generalist predator): increased egg predation rates
lepidopteran oviposition rates (lepidopteran): decreased lepidopteran oviposition rates

C=CC(O)CCCCC (stereo not shown) [octenol]
strongest responses of the B neuron (B neuron): strongest responses

CCCCCCCCOC(=O)CCC [octyl butyrate]
attraction of V. pensylvanica (V. pensylvanica): attract

CCCCCOC(C)=O [pentyl acetate]
strongest responses of the A neuron (ab3A neuron): strongest responses
